Assay results: USRE42890E1, “Furazanobenzimidazoles” (Basilea Pharmaceutica AG, priority 2003, dated 2011)

Columns and labels:
[1] = tested on: Jurkat; assay: MTS proliferation assay, Jurkat; format: cell-based, human; details: 72 h incubation, read-out: MTS proliferation assay IC 50 Jurkat
Description: (§1) Cell lines are cultured in RPMI-1640 tissue culture medium containing either 5% or 10% fetal calf serum, 0.05 mM 2-mercaptoethanol, 2 mM glutamine and penicillin/streptomycin 50 μg/ml (complete medium) (Sigma, Buchs, Switzerland). General growth conditions are 37° C. and 7.5% CO2.
(§2) The following human cell lines (either EGFP transfected or not) are being used: HeLa (ATCC: CCL-2), KB (ATCC: CCL-17), MCF7 (ATCC: HTB-22), SK-BR-3 (ATCC: HTB-30), SK-Mel 1 (ATCC: HTB-67), SK-Mel 28 (ATCC: HTB-72), PC-3 (ATCC: CRL-1435), SW 480 (ATCC: CCL-228), NCl-H460 (ATCC: HTB-177), NCl-H1792 (ATCC: CRL-5895), HT1080 (ATCC: CCL-21), Jurkat (ATCC: TIB-152), Ramos (ATCC: CRL-1596), Raji (ATCC: CCL-86), H9 (ATCC: HTB-176), Hut78 (ATCC: TIB-161), K562 (ATCC: CCL 243), HL-60 (ATCC: CCL 240), U-87MG (ATCC: HTB-14), HepG2 (ATCC: HB-8065), U-2 OS (ATCC: HTB-96), Saos-2 (ATCC: HTB-85), U937 (ATCC: CRL 1593), Hs 578T (ATCC: HTB 126), HBL-100 (ATCC: HTB 124), Molt-4 (ATCC: CRL 1582).
(§3) The assay is performed in 96 well tissue culture plates. The cells (range: 1.5*10^3-10^4) are seeded out in 80 μl complete medium 24 h prior to compound treatment. The test compounds are added in 20 μl complete medium containing max 5% DMSO. The final compound concentrations in the assays are 10 μM, 3 μM, 1 μM and 0.3 μM, respectively. The assay plates are incubated for 72 h at culture conditions. The MTS reagent is prepared according to the manufacturer's protocol (Promega G1111). 20 μl MTS reagent are added to each well, the assay plates are quickly spun and incubated for another 3 h at culture conditions. Subsequently, the plates are shortly shaked and absorption measured with a microplate-reader at 492 nm.

[2] = tested on: MRC5; assay: MTS proliferation assay, MRC5; format: cell-based; details: MRC5, 72 h incubation; read-out: MTS proliferation assay IC 50 MRC5
Description: as §1, §3

[3] = tested on: adherent cells or suspension cells; assay: Hoechst 33342 nuclear staining (fraction of apoptotic nuclei); format: cell-based; parameters: key: 0 relating to no activity; 1 relating to weak activity comprising less than 70% of the cells; score 2 relating to strong activity comprising more than 70% of the cells
Description: as §1
This assay is performed in 96 well tissue culture plates. Appropriate number of cells (adherent cells: 3-5*10^3, suspension cells: 8-10*10^3) are being seeded out in 80 μl complete medium. Adherent cells are incubated for 24 h for proper spreading out before addition of test compounds while suspension cells are immediately treated with test compounds after seeding out. The test compounds are added in 20 μl complete medium containing max 5% DMSO. […] After 24 h or 48 h incubation at culture conditions, 10 μl medium containing Hoechst 33342 dye (Sigma B-2261) at 2-5 μg/ml are added to each well. The assay plates are then further incubated for 30 minutes and subsequently analyzed with a standard inverted fluorescence microscope.
The readout allows the determination of the fraction of apoptotic nuclei as well as other morphological criteria specific for apoptosis as a function of the treatment. The following scores are used: 0 relating to no activity, 1 relating to weak activity comprising less than 70% of the cells and score 2 relating to strong activity comprising more than 70% of the cells.

[4] = tested on: HeLa; assay: MTS proliferation assay, HeLa; format: cell-based, human; details: 72 h incubation, read-out: MTS proliferation assay IC 50 HeLa
Description: as §1, §2, §3

| SMILES | IC50 [1] [nM] | IC50 [2] [nM] | Hoechst 33342 nuclear staining score ([3]; H460, conc 0.01 μm) | Hoechst 33342 nuclear staining score ([3]; H460, conc 0.1 μm) | Hoechst 33342 nuclear staining score ([3]; H460, conc 1 μm) | Hoechst 33342 nuclear staining score ([3]; HeLa, conc 0.01 μm) | Hoechst 33342 nuclear staining score ([3]; HeLa, conc 0.1 μm) | Hoechst 33342 nuclear staining score ([3]; HeLa, conc 1 μm) | Hoechst 33342 nuclear staining score ([3]; Jily, conc 0.01 μm) | Hoechst 33342 nuclear staining score ([3]; Jily, conc 0.1 μm) | Hoechst 33342 nuclear staining score ([3]; Jurkat, conc 0.01 μm) | Hoechst 33342 nuclear staining score ([3]; Jurkat, conc 0.1 μm) | Hoechst 33342 nuclear staining score ([3]; Jurkat, conc 1 μm) | Hoechst 33342 nuclear staining score ([3]; MRC5, conc 0.01 μm) | Hoechst 33342 nuclear staining score ([3]; MRC5, conc 0.1 μm) | Hoechst 33342 nuclear staining score ([3]; MRC5, conc 1 μm) | Hoechst 33342 nuclear staining score ([3]; PBLs, conc 0.01 μm) | Hoechst 33342 nuclear staining score ([3]; PBLs, conc 0.1 μm) | Hoechst 33342 nuclear staining score ([3]; PBLs, conc 1 μm) | IC50 [4] [nM] | further results |
| --- | --- | --- | --- | --- | --- | --- | --- | --- | --- | --- | --- | --- | --- | --- | --- | --- | --- | --- | --- | --- | --- |
| COc1cccc(C(Cn2c(-c3nonc3N)nc3ccccc32)=NO)c1 (mixture of isomers) [Example 24] | > 1000 | > 1000 | 0 | 0 | 0 | 0 | 0 | 0 | 0 | 0 | 0 | 0 | 0 | 0 | 0 | 0 | 0 | 0 | 0 | > 1000 | Hoechst 33342 nuclear staining score ([3]; Jily, conc 1 μm): 0 |
| Nc1nonc1-c1nc2ccccc2n1CC(=O)c1ccc(-c2ccccc2)cc1 [Example 26] | > 1000 | > 1000 | 0 | 0 | 0 | 0 | 0 | 0 | 0 | 0 | 0 | 0 | 0 | 0 | 0 | 0 | 0 | 0 | 0 | > 1000 | Hoechst 33342 nuclear staining score ([3]; Jily, conc 1 μm): 0 |
| CON=C(Cn1c(-c2nonc2N)nc2ccccc21)c1ccccc1Cl (mixture of isomers) [Example 34] | > 1000 | > 1000 | 0 | 0 | 0 | 0 | 0 | 0 | 0 | 0 | 0 | 0 | 0 | 0 | 0 | 0 | 0 | 0 | 0 | > 1000 | Hoechst 33342 nuclear staining score ([3]; Jily, conc 1 μm): 0 |
| CON=C(Cn1c(-c2nonc2N)nc2ccccc21)c1ccccc1 (mixture of isomers) [Example 18] | 100 to 1000 | 100 to 1000 | 0 | 0 | 1 (1 relating to weak activity comprising less than 70% of the cells) | 0 | 0 | 2 (score 2 relating to strong activity comprising more than 70% of the cells) | – | – | 0 | 0 | 2 (score 2 relating to strong activity comprising more than 70% of the cells) | 0 | 0 | 1 (1 relating to weak activity comprising less than 70% of the cells) | 0 | 0 | 0 | > 1000 | – |
